The source made the active and inactive calls. The rule behind the calls is not given here. Bounds are passed on as bounds.

The nature of assay [1]: Antiproliferative activity against human KB-VIN10 cells incubated for 72 hrs by SRB assay. The format is functional, cell-based. The settings on record: KB-VIN10, 72 h.
Assay [2] deals with A549. The assay is described as follows: Antiproliferative activity against human A549 cells harbouring wild type EGFR incubated for 72 hrs by SRB assay. Format: functional, cell-based. Particulars: A549, 72 h. A general note: The SRB assay estimates cell density from bound dye.
The target of assay [3] is Epidermal growth factor receptor (Homo sapiens, UniProt P00533, L858R/T790M). The assay is described as follows: biochemical. Format: cell-based, Sf9.
For assay [4], the system named is MDA-MB-231. Briefly: Antiproliferative activity against human MDA-MB-231 cells incubated for 72 hrs by SRB assay. Format: functional, cell-based. The settings on record: MDA-MB-231, 72 h.
For assay [5], the system named is NCI-H1975. The assay is described as follows: Antiproliferative activity against human NCI-H1975 cells assessed as induction of NO production at 25 uM preincubated for 1 hr with hemoglobin followed by compound addition and measured after 48 hrs by Griess reagent based assay. Format: functional, cell-based. In general terms: Griess reagent forms a coloured azo dye with nitrite.

Assay [6] relates to NCI-H1975. Briefly: Antiproliferative activity against human NCI-H1975 cells assessed as induction of NO production at 100 uM incubated for 150 mins by Griess reagent based assay. Format: functional, cell-based.
The target of assay [7] is Epidermal growth factor receptor (Homo sapiens, UniProt P00533). Briefly: biochemical. The format is cell-based, Sf9.
Description: Inhibition of C-terminal His-tagged/ N-terminal GST-tagged recombinant human EGFR (668 to 1210 residues) expressed in a Baculovirus infected Sf9 cell expression system using poly-EY as substrate incubated for 30 mins by ADP-Glo kinase assay
Assay [8] relates to NCI-H1975. The assay is described as follows: Antiproliferative activity against human NCI-H1975 cells incubated for 72 hrs by MTS assay. Particulars: NCI-H1975, 72 h. The format is functional, cell-based. (Tetrazolium dyes change colour on reduction, which living cells bring about.)
For assay [9], the system named is NCI-H1975. The assay is described as follows: cells. Particulars: Homo sapiens, NCI-H1975, 72 h. Format: functional, cell-based.
The target of assay [10] is Epidermal growth factor receptor (Homo sapiens, UniProt P00533, C797S/L858R/T790M). The assay is described as follows: biochemical. Format: cell-based, Sf9.
For assay [11], the system named is MCF7. The assay is described as follows: Antiproliferative activity against human MCF7 cells incubated for 72 hrs by SRB assay. Format: functional, cell-based. Particulars: MCF7, 72 h.
Assay [12] concerns KB. The assay is described as follows: Antiproliferative activity against human KB cells incubated for 72 hrs by SRB assay. The format is functional, cell-based.

Sequence of Epidermal growth factor receptor (Homo sapiens, UniProt P00533) (P00533 whole entry): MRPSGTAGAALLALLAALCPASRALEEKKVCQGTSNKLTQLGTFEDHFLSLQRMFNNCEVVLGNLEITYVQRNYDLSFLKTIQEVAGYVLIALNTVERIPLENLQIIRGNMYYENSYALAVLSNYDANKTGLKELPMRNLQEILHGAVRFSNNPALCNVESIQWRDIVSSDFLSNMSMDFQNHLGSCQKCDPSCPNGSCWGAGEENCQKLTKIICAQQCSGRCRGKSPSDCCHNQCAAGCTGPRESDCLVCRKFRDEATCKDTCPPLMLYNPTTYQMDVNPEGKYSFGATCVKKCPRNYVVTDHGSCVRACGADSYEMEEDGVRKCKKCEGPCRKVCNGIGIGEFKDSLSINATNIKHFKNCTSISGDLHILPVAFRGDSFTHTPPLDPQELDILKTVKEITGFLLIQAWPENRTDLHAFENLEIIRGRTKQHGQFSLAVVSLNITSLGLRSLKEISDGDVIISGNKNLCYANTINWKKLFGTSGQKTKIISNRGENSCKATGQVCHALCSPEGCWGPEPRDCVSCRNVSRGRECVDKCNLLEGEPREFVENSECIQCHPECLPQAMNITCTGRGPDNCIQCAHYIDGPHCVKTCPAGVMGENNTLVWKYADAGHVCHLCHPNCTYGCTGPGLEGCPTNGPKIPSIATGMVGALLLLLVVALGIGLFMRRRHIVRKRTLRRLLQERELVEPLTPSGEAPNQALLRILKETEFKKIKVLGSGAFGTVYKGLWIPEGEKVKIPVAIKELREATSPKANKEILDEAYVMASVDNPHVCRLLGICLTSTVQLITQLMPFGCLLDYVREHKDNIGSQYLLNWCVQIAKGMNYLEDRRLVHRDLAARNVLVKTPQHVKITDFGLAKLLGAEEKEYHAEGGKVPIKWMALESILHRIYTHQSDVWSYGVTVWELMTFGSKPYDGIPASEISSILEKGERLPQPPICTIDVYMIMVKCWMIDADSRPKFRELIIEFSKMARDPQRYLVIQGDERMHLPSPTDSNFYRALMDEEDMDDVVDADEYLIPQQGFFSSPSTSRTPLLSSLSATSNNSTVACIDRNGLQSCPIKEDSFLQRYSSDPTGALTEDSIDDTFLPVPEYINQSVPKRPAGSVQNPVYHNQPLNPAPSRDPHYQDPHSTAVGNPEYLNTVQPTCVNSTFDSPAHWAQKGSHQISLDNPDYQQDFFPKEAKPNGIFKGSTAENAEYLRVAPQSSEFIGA
Sequence of Epidermal growth factor receptor (Homo sapiens, UniProt P00533, C797S/L858R/T790M) (P00533 25-1210 T790M/C797S/L858R limits assumed): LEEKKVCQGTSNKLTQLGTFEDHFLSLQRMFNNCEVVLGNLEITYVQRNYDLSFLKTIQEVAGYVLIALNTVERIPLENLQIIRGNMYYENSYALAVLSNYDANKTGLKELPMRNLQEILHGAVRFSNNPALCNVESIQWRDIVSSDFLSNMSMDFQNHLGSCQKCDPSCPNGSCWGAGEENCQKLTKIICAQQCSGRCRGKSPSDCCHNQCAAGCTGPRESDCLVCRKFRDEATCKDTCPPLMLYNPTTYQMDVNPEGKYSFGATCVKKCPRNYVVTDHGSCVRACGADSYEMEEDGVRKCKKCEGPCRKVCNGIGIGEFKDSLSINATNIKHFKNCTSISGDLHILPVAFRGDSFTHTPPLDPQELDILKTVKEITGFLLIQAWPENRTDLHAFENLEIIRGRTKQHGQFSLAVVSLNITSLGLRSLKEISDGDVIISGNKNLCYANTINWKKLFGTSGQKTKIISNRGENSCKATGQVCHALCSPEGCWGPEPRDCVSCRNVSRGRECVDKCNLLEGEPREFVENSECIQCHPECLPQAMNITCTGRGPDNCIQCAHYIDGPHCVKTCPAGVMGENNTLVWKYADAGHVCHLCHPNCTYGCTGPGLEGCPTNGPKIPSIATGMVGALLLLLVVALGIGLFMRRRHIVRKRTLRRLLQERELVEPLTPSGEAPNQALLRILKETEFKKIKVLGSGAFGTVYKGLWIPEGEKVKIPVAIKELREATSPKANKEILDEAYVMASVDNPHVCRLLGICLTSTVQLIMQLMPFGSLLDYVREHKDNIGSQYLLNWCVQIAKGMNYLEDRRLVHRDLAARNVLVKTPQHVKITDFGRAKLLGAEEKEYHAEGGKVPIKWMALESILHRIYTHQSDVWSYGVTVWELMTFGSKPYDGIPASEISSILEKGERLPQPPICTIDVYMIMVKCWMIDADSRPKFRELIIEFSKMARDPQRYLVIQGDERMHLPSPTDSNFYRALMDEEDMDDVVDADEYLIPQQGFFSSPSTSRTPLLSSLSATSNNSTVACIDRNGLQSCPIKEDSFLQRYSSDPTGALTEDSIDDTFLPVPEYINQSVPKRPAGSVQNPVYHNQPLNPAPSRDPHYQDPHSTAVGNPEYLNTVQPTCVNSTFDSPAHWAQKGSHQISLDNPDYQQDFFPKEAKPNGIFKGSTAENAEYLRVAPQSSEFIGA
Sequence of Epidermal growth factor receptor (Homo sapiens, UniProt P00533, L858R/T790M) (P00533 25-1210 T790M/L858R limits assumed): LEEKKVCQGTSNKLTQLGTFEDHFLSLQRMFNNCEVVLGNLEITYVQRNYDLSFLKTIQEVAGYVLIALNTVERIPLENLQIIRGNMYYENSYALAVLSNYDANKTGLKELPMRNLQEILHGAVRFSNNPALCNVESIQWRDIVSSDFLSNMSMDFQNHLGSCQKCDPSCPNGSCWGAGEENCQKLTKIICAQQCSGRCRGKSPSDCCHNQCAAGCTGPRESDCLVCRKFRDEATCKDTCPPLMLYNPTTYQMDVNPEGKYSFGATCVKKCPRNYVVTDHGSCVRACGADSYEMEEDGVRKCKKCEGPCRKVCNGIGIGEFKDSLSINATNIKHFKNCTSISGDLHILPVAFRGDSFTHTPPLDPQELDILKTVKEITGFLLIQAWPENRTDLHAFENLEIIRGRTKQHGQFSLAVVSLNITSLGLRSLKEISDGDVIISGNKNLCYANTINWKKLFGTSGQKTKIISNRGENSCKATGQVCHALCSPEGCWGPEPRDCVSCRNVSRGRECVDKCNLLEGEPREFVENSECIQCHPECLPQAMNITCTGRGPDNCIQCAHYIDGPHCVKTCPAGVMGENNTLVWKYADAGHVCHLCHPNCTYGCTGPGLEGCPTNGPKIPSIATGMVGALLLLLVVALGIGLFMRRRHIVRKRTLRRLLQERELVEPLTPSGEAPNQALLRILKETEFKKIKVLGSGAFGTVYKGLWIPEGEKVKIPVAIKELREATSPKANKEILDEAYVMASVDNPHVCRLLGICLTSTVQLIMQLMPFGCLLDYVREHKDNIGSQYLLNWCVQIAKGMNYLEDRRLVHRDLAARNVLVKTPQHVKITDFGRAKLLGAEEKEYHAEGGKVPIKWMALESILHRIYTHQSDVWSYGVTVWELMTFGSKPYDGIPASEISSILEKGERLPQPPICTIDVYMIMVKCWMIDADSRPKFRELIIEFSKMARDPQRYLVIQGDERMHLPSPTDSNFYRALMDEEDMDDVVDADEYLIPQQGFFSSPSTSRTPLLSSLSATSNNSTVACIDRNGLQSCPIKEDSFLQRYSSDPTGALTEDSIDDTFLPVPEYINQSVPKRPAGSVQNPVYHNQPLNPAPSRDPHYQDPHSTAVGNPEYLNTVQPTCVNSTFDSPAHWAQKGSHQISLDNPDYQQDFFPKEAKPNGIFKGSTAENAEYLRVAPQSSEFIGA

For orientation: IC50 means the midpoint of a concentration-inhibition curve. A higher IC50 goes with weaker potency. Take `CC(=O)OC[C@@]1(C)[C@@H]2CC[C@]3(C)[C@H](CC=C4[C@@H]5CC(C)(C)CC[C@]5(C(=O)OCCCCO[N+](=O)[O-])CC[C@]43C)[C@@]2(C)CC[C@@H]1OC(C)=O`: the IC50 in assay [1] is 4.8 µM; in assay [2], 4.6 µM; in assay [3], greater than 20 µM; in assay [4] it was 5.2 µM; in [7], 0.06 µM; in assay [8] it was 8.1 µM. For the same compound, the IC50 in [9] turned out to be 7.6 µM; in assay [10], 0.01 µM; in assay [11] it was 5 µM; in assay [12], 5.1 µM. Further, the result in assay [5] was inactive. Moreover, the result in assay [6] was Active.
For `CC1(C)CC[C@]2(C(=O)OCCO[N+](=O)[O-])CC[C@]3(C)C(=CC[C@@H]4[C@@]5(C)CC[C@H](O)C(C)(C)[C@@H]5CC[C@]43C)[C@@H]2C1`, the IC50 in assay [1] was 6.4 µM; in assay [2], 4.7 µM; in assay [3] it was greater than 20 µM; in assay [4], 5.5 µM; in [7], 0.11 µM; in assay [8] it was greater than 10 µM. Also, the IC50 is greater than 10 µM in assay [9], 0.03 µM in [10], 5.5 µM in assay [11] and 5 µM in assay [12]. Further, the result in assay [6] was Active.
Turning to `CC1(C)CC[C@]2(C(=O)OCCCCO[N+](=O)[O-])CC[C@]3(C)C(=CC[C@@H]4[C@@]5(C)CC[C@H](O)[C@@](C)(CO)[C@@H]5CC[C@]43C)[C@@H]2C1`, the concentration for half-maximal inhibition (IC50) in [1] is greater than 10 µM; in assay [2], 9.3 µM; in [3], greater than 20 µM; in assay [4], greater than 10 µM; in [7], 0.19 µM; in assay [8] it was greater than 10 µM. Moreover, the IC50 is greater than 10 µM in assay [9], 0.04 µM in assay [10], 8 µM in assay [11] and greater than 10 µM in assay [12]. Further, the outcome in assay [6] was Active.
With `CC(=O)OC[C@@]1(C)[C@@H]2CC[C@]3(C)[C@H](CC=C4[C@@H]5CC(C)(C)CC[C@]5(C(=O)OCCCCCCO[N+](=O)[O-])CC[C@]43C)[C@@]2(C)CC[C@@H]1OC(C)=O`, the IC50 turned out to be 4.9 µM in [1]; 4.7 µM in [2]; 5.1 µM in assay [4]; 4.6 µM in assay [11]; 4.8 µM in [12]. Moreover, the outcome in [6] was Active.
Consider `CC(=O)OC[C@@]1(C)[C@@H]2CC[C@]3(C)[C@H](CC=C4[C@@H]5CC(C)(C)CC[C@]5(C(=O)OCCO[N+](=O)[O-])CC[C@]43C)[C@@]2(C)CC[C@@H]1OC(C)=O`, for which the IC50 in assay [1] was greater than 40 µM; in assay [2] it was 5.3 µM; in assay [4], 7.3 µM; in [11], greater than 10 µM; in [12], 7 µM. For the same compound, in [6], the outcome was Active.
In the case of `CC(=O)O[C@H]1CC[C@]2(C)[C@H]3CC=C4[C@@H]5CC(C)(C)CC[C@]5(C(=O)OCCCCO[N+](=O)[O-])CC[C@@]4(C)[C@]3(C)CC[C@H]2C1(C)C`, the IC50 in assay [1] is 5.1 µM; in assay [2] it was 4.8 µM; in [3] it was greater than 20 µM; in assay [4], 5.4 µM; in assay [7] it was 0.1 µM; in assay [8] it was greater than 10 µM. The IC50 in [9] was greater than 10 µM; in assay [10] it was 0.02 µM; in assay [11] it was 5.2 µM; in assay [12] it was 5.3 µM. Further, the result in [5] was inactive. Moreover, the outcome in [6] was Active.
Take `CC(=O)O[C@H]1CC[C@]2(C)[C@H]3CC=C4[C@@H]5CC(C)(C)CC[C@]5(C(=O)OCCCCCCO[N+](=O)[O-])CC[C@@]4(C)[C@]3(C)CC[C@H]2C1(C)C`: the IC50 was determined as 7.6 µM in assay [1]; 5 µM in [2]; 5.3 µM in assay [4]; 6.4 µM in [11]; 5.1 µM in assay [12]. Besides, the outcome in assay [6] was Active.

The values are drawn from ChEMBL document CHEMBL4414650, “Discovery of an Oleanolic Acid/Hederagenin-Nitric Oxide Donor Hybrid as an EGFR Tyrosine Kinase Inhibitor for Non-Small-Cell Lung Cancer” (J Nat Prod, 2019).
